Tests used:
[1] = Blood, tumor and tissue concentration after last dose in the tumor model; format: in vivo, Balb/c nude mice; conditions: for concentration at 2 h / concentration at 8 h: female, Balb/c nude (Nu/Nu), mouse, ip; for concentration at 2 h / concentration at 8 h / concentration of MRTX1133 in kidney: 10 mg/kg; for concentration of MRTX1133 in heart / concentration of MRTX1133 in intestine / concentration of MRTX1133 in liver / concentration of MRTX1133 in lung / concentration of MRTX1133 in spleen / concentration of MRTX1133 in stomach / concentration of MRTX1133 in tumor / concentration of MRTX1133 in kidney: from MRTX1133 IP 10 mpk
[2] = test system: AsPC-1 (pancreatic cancer cell line bearing the KRAS^G12D mutation) xenograft; experiment: AsPC-1 xenograft tumor mouse model efficacy; format: in vivo, Balb/c nude mice; conditions: 16 days
[3] = Tolerability and body weight in mice; format: in vivo; conditions: oral, 300 mpk
[4] = Caco-2 permeability assay; format: in vitro ADME; conditions: human, Table 1
[5] = Pharmacokinetics in mice; format: in vivo; conditions: intravenous, 3 mpk
[6] = Stability in mouse liver microsomes; format: in vitro ADME; conditions: pH 7.4
[7] = following IP administration of MRTX1133 (10 mpk), time not given

## C#Cc1c(F)ccc2cc(O)cc(-c3ncc4c(N5C[C@H]6CC[C@@H](C5)N6C(=O)OC(C)OC(=O)CCC)nc(OC[C@@]56CCCN5C[C@H](F)C6)nc4c3F)c12 (stereo partly drawn) [Compound 9, 1-(Butyryloxy)ethyl (1R,5S)-3-(7-(8-ethynyl-7-fluoro-3-hydroxynaphthalen-1-yl)-8-fluoro-2-(((2R,7aS)-2-fluorotetrahydro-1H-pyrrolizin-7a(5H)-yl)methoxy)pyrido[4,3-d]pyrimidin-4-yl)-3,8-diazabicyclo[3.2.1]octane-8-carboxylate]
[1]; 8 h post last oral dose of prodrug 9 (high dose, 126 mpk bid) in the tumor model
  blood concentration of the named Cpd: BLQ
[2]; high dose 126 mpk (equimolar to 100 mpk MRTX1133) p.o. bid
  tumor growth inhibition (TGI): 54%
[2]; low dose 37.8 mpk (equimolar to 30 mpk MRTX1133) p.o. bid
  tumor growth inhibition (TGI): 20%
[3]; conventional vehicle
  tolerability in mice: intolerable
[3]; lipid-based formulation
  tolerability in mice: well-tolerated

## C#Cc1c(F)ccc2cc(O)cc(-c3ncc4c(N5CC6CCC(C5)N6)nc(OC[C@@]56CCCN5C[C@H](F)C6)nc4c3F)c12 [MRTX1133]
[4]; Caco-2, Caco-2 permeability Papp A – B
  Papp A→B: < 0.48 ×10⁻⁶ cm/s
[4]; Caco-2, Caco-2 permeability Papp B – A
  Papp B→A: 8.05 ×10⁻⁶ cm/s
[4]; Caco-2, Caco-2 permeability efflux ratio
  efflux ratio: > 16.8
[1]; brain
  concentration at 2 h: 131 ng/g
  concentration at 8 h: 139 ng/g
[1]; whole blood
  concentration at 2 h: 654 ng/mL
  concentration at 8 h: 330 ng/mL
[1]; [7]
  concentration of MRTX1133 in the liver, spleen, and lung: ~60 000 ng/g
  concentration of MRTX1133 in the stomach, intestine, and heart: ~20 000 ng/g
[1]; 2 h post last dose
  concentration of MRTX1133 in heart: 18 330 ng/g
  concentration of MRTX1133 in intestine: 24 388 ng/g
  concentration of MRTX1133 in liver: 63 525 ng/g
  concentration of MRTX1133 in lung: 53 040 ng/g
  concentration of MRTX1133 in spleen: 58400 ng/g
  concentration of MRTX1133 in stomach: 26 325 ng/g
  concentration of MRTX1133 in tumor: 11 870 ng/g
  concentration of MRTX1133 in kidney: 285 150 ng/g
[1]; 8 h post last dose
  concentration of MRTX1133 in heart: 15 795 ng/g
  concentration of MRTX1133 in intestine: 18 213 ng/g
  concentration of MRTX1133 in liver: 62 950 ng/g
  concentration of MRTX1133 in lung: 57 300 ng/g
  concentration of MRTX1133 in spleen: 54000 ng/g
  concentration of MRTX1133 in stomach: 27 775 ng/g
  concentration of MRTX1133 in tumor: 14 300 ng/g
  concentration of MRTX1133 in kidney: 333 900 ng/g
[2]; 100 mpk p.o. bid
  antitumor effect: no apparent antitumor effect
[5]
  AUC0–24 h of MRTX1133: 2253 ng·h/mL
[6]
  CLint scaled at 1 μM: 143 mL/min/kg
  half-life at 1 μM: 38.5 min

— publication PMC9948199 (ACS Omega, 2023)
